Data on 63 compounds can be found in a melting point compilation (Tetko et al.; mined from patent text by program, amines drawn as free bases though some values may be those of a salt).

Molecules are shown by their SMILES. Bounds are passed on as bounds.

As usually defined, the melting point is the temperature of the solid-liquid transition. Regarding `Cc1c(Br)cc(C(C)(CO)c2ccc(C(C)C)cc2)c(O)c1C` (stereo not drawn), the melting point lay in the range of 110 to 111 °C.

With `Cc1ccc(C=C2SC(=S)N(CC(=O)O)C2=O)cc1`, the melting point lay within 245 to 250 °C.

The compound `O=C(O)[C@@H]1CCCN1C(=O)CCBr` came in with a melting point of 83 to 85 °C.

The compound `Cc1c(-c2ccccc2Cl)n(-c2ccccc2)c(-c2ccccc2F)cc1=O` displayed a melting point of 182 to 183 °C.

`COc1cccc([C@H]2O[C@H](CC(=O)Nc3ccsc3C(=O)O)C(=O)N(CC(C)(C)CO)c3ccc(Cl)cc32)c1OC`: the melting point lay within 154 to 155 °C.

With `CNS(=O)(=O)c1ccc2ccccc2c1`, the melting point amounted to 137 °C.

`CC1(C)COC(CCc2ccc(N)cc2)OC1` yielded a melting point of 93.5 to 94.5 °C.

As to `CC(C(N)=O)c1ccc2c(=O)c3ccccc3ccc2c1` (stereo not drawn), the melting point was 158 to 159 °C.

As to `CC(=O)N1CCc2cc(CC(C)NCCOc3ccccc3OCC(F)(F)F)cc(C#N)c21` (stereo not drawn), the melting point was 57 to 59 °C.

The compound `COC(=O)CCCOc1cc([N+](=O)[O-])c(CO)cc1OC` had a melting point of 100 °C.

The compound `Cc1ccc(C2C(=O)N(c3ccccc3)N(c3ccccc3)C2=O)cc1` showed a melting point of 184 to 185 °C.

Regarding `COCCCCCC(=NO)c1ccc(Cl)c(Cl)c1`, the melting point was in the range of 53 to 54.5 °C.

In turn, `COc1ccc(C=Nc2cc(OC)c(OC)c(OC)c2)cc1O[Si](C)(C)C(C)(C)C` came in with a melting point of 90 to 91 °C.

The compound `CSc1nc(=O)n(C)c(=O)[nH]1` came in with a melting point of 243 to 244 °C.

Compound `CCn1nc2c(N)nc3c(c2c1CC1(O)CCCCC1)CCCC3` came in with a melting point of 232 to 234 °C.

For the compound `CC(C)n1nc(-c2cc(-n3cccc3)cnc2-c2ccccc2)ccc1=O`, the melting point lay within 189 to 190 °C.

The compound `CCc1nc2c(s1)CC(COS(=O)(=O)c1ccc(C)cc1)CC2` (stereo not drawn) registered a melting point of 54 to 56 °C.

Take `CCCn1c2cc(OC)ccc2c2oc(C(=O)Cl)cc21`: the melting point lay within 195 to 196 °C.

`OCCC12CC(c3ccccc31)c1ccccc12` showed a melting point of 99 to 100 °C.

For the compound `Nc1nccnc1Cc1ccccc1`, the melting point is 93 to 96 °C.

`COc1ccc(-c2cc(=S)n(Cc3ccncc3)nc2-c2ccc(OC)cc2)cc1` displayed a melting point of 160 °C.

For `CN(c1ccc(CC(=O)O)cc1)c1cc(C(C)(C)C)c(O)c(C(C)(C)C)c1`, the melting point is 181 to 182 °C.

Turning to `COc1cc(C(=O)C=Cc2ccccn2)cc(OC)c1OC`, the melting point is 94 to 95 °C.

Turning to `O=C(O)c1ncc(Cl)nc1Cl`, the melting point is 139 to 141 °C.

`NS(=O)(=O)c1cccc(-c2cccc(-c3nc(-c4ccc(C(F)(F)F)nc4)cc(C(F)(F)F)n3)c2)c1` gave a melting point of 211 °C.

`CCCn1cnc2c(=O)[nH]c(N)nc21`: the melting point was more than 300 °C.

`O=C(Nc1nccs1)c1ccc(-c2ccc3nnn(Cc4ccc5ncccc5c4)c3n2)cc1F` had a melting point of 204 to 206 °C.

The compound `COc1ccc(CC#N)c(CCNC(C)=O)c1OC` came in with a melting point of 134 to 136 °C.

`COc1ccc(Cc2cc3cc(C#N)ccc3o2)cc1` displayed a melting point of 78 to 80 °C.

For the compound `O=C(Nc1ccc(-c2nc(-c3ccco3)no2)c(Cl)c1)OCC(Cl)(Cl)Cl`, the melting point lay within 219 to 220 °C.

`COc1cc2c3c(c1OC)CN(C)CC3Cc1cc3c(cc1-2)OCO3` (stereo not drawn) gave a melting point of 169 to 172 °C.

The compound `CCOc1cc(COc2nn(Cc3ccccc3)cc2C=O)ccc1OCc1nc(-c2ccco2)oc1C` yielded a melting point of 144 to 145 °C.

For `O=S(=O)(OCC1OC2CC(CC(OS(=O)(=O)c3ccc(Br)cc3)C2)O1)c1ccc(Br)cc1` (stereo not drawn), the melting point was determined as 128 °C.

As for `COc1c(C)c2c(c(O)c1C/C=C1\CCC(C(=O)O)C1)C(=O)OC2` (stereo not drawn), the melting point was 128 to 130 °C.

Regarding `CCC(C)c1ccc(-n2c(-c3ccc(OCCO)cc3)nc3ccccc3c2=O)cc1` (stereo not drawn), the melting point was in the range of 173 to 175 °C.

Consider `O=[N+]([O-])c1cccc(Oc2ccc(-c3ccccc3)cc2)c1`, for which the melting point fell in the range of 97.6 to 98.8 °C.

The compound `COc1ccc2cccc(N3CCN(CCC4CC(=O)Nc5ccccc54)CC3)c2c1` (stereo not drawn) gave a melting point of 177 to 178 °C.

In the case of `COC(=O)C(Cl)=C(NC1CC1)C(C(=O)OC)C(=O)C(F)F` (stereo not drawn), the melting point lay in the range of 55 to 57 °C.

As to `CC(C#N)(c1ccc(F)cc1)c1ccc([N+](=O)[O-])cc1Cl` (stereo not drawn), the melting point is 133 °C.

Turning to `CNc1nc(C)c(C)cc1NC(=O)N1CCN(c2cc(C)cc(C)c2)CC1`, the melting point lay within 160 to 162 °C.

The compound `CCNC(=O)c1cc(NS(=O)(=O)c2ccc(I)cc2)ccc1Oc1cncc(Cl)c1` had a melting point of 154 to 156 °C.

The compound `COc1cccc(NC(=O)c2ccccc2C)c1` showed a melting point of 142 to 143 °C.

In turn, `Cc1nccn1CCN1CCC(Nc2nc3ccccc3n2Cc2ccc(F)cc2)CC1` displayed a melting point of 170 °C.

The compound `CC(=O)NCCCCC(NC(C)=O)C(=O)O` (racemic) returned a melting point of 138 to 139 °C.

Consider `CN1C(C)(C)CC2(CC1(C)C)NC(=O)N(CC(O)COCC(O)COCC(O)CN1C(=O)NC3(CC(C)(C)N(C)C(C)(C)C3)C1=O)C2=O` (stereo not drawn), for which the melting point lay in the range of 175 to 177 °C.

Compound `CCCN1C(=O)C2C3CCC(O3)C2C1=O` (stereo not drawn) yielded a melting point of 79 to 80 °C.

Compound `CCOC(=O)CC1(S(N)(=O)=O)c2cc(F)ccc2-c2ccc(F)cc21` yielded a melting point of 215 to 217 °C.

`N=C(Nc1ccc2ccncc2c1)c1cccs1` displayed a melting point of 178 °C.

The compound `CCN(CC)c1ccc(Nc2nc(N)c(C(=O)c3ccccc3[N+](=O)[O-])s2)cc1` yielded a melting point of 202 to 205 °C.

Compound `CC(C)(C)OC(=O)CC(NC(=O)Nc1cccc(C(=O)O)c1)C(=O)Nc1ccccc1C(=O)c1ccccc1` (stereo not drawn) returned a melting point of 175 to 180 °C.

In the case of `O=C1CCCc2ccc(OCc3ccc(Cl)c(Cl)c3)cc21`, the melting point fell in the range of 122 to 123 °C.

With `Cn1c(CC(=O)O)cc2ccccc21`, the melting point lay in the range of 146 to 148 °C.

With `CCCCCCCCCCCCCSc1nnc(NC(=O)Nc2c(C(C)C)cccc2C(C)C)[nH]1`, the melting point is 131 to 135 °C.

The compound `O=C(O)CCCOc1cccc(CCCCCCOc2cc(-c3ccsc3)cc(-c3ccc4c(c3)OCO4)c2)c1CCC(=O)O` yielded a melting point of 110 to 112 °C.

The compound `Cc1nc2cccc(OC3CCCCC3)c2c(N)c1C(=O)O` registered a melting point of 220 to 222 °C.

As for `CCCOc1ccc(S(=O)(=O)C(C)C)cc1-c1nc2c(CC)nn(C[C@@H]3CCCN3C(=O)OC(C)(C)C)c2c(=O)[nH]1`, the melting point fell in the range of 141 to 143 °C.

Take `Cc1ccc2oc(Br)c(-c3ccccc3)c2c1`: the melting point is 52 to 57 °C.

On to `COC(=O)NC(C)Cc1cccc([N+](=O)[O-])c1` (stereo not drawn), for which the melting point lay in the range of 104 to 105 °C.

Turning to `COC(=O)CC[C@H](NC(=O)c1ccc(CCn2cnc3nccc-3c2NO)cc1)C(=O)OC`, the melting point was in the range of 170 to 172 °C.

`COc1ccc(NS(=O)(=O)CC(=O)O)cc1[N+](=O)[O-]` gave a melting point of 154 to 156 °C.

In turn, `COc1cc(OC)c(C(=O)O)c(C(F)(F)F)n1` returned a melting point of 194 to 198 °C.

`Cc1cccc(NC(=O)NC2N=C(c3ccccc3F)c3ccccc3N(Cc3ncccc3C(N)=O)C2=O)c1` (racemic) registered a melting point of 203 °C.

Compound `CCc1cc([N+](=O)[O-])cc([N+](=O)[O-])c1Cl` gave a melting point of 41 to 44 °C.
